The assay addresses FXR (Homo sapiens (Human), UniProt Q96RI1). The assay is described as follows: transient human FXR/Gal4-luciferase reporter assay. The settings on record: Gal4-hFXR fusion construct, HEK293 reporter cells; response relative to 8 μM GW-4064. Format: cell-based. An outline of the steps:
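Compound exposure ran overnight at 37 °C and activity was measured as luminescence with Steady-Glo reagent. The cells were a HEK293 line stably expressing firefly luciferase under five Gal4 response elements. They were transiently transfected, one night beforehand, with a plasmid encoding Gal4 DNA-binding domain fused to the human FXR ligand-binding domain.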
Background: Reporter assays use an easily measured gene product as a stand-in for the process of interest.
Chain of FXR (Q96RI1 262-486): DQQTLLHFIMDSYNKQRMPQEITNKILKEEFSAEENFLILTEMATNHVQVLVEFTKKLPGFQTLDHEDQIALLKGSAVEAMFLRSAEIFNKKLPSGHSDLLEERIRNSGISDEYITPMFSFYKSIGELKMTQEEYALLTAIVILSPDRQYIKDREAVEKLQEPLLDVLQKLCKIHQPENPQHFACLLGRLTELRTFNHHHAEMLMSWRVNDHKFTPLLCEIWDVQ
Consider `CC(C)(F)c1nc(C23CCC(CN(C(=O)OC4CCC(F)(F)CC4)c4cc(-c5ccc(OC(F)F)cc5)c(F)cn4)(CC2)CC3)no1` [Example 631, 4,4-difluorocyclohexyl (4-(4-(difluoromethoxy)phenyl)-5-fluoropyridin-2-yl) ((4-(5-(2-fluoropropan-2-yl)-1,2,4-oxadiazol-3-yl)bicyclo[2.2.2]octan-1-yl)methyl) carbamate], for which a half-maximal response (EC50) required 117 nM.

`CC(C)Oc1ccc(-c2cccc(N(CC34CCC(c5noc(C(C)(C)F)n5)(CC3)CC4)C(=O)OC3(C(F)(F)F)COC3)c2)cc1` [Example 632, 3-(trifluoromethyl)oxetan-3-yl ((4-(5-(2-fluoropropan-2-yl)-1,2,4-oxadiazol-3-yl)bicyclo[2.2.2]octan-1-yl)methyl)(4′-isopropoxy-[1,1′-biphenyl]-3-yl)carbamate]: the EC50 – broadly, the concentration that produces a half-maximal response – stood at 222 nM.

Turning to `CC(C)(O)Cn1cc(-c2cc(N(CC34CCC(c5noc(C(C)(F)F)n5)(CC3)CC4)C(=O)NC34CC(C3)C4)ccc2F)cn1` [Example 633, 3-(bicyclo[1.1.1]pentan-1-yl)-1-((4-(5-(1,1-difluoroethyl)-1,2,4-oxadiazol-3-yl)bicyclo[2.2.2]octan-1-yl)methyl)-1-(4-fluoro-3-(1-(2-hydroxy-2-methylpropyl)-1H-pyrazol-4-yl)phenyl)urea], the EC50 worked out at 32 nM.

Take `CC(C)(O)c1ccc(-c2ccnc(N(CC34CCC(c5noc(C(C)(C)F)n5)(CC3)CC4)C(=O)OC(C)(C)C(F)(F)F)c2)cc1` [Example 634, 1,1,1-trifluoro-2-methylpropan-2-yl((4-(5-(2-fluoropropan-2-yl)-1,2,4-oxadiazol-3-yl)bicyclo[2.2.2]octan-1-yl)methyl)(4-(4-(2-hydroxypropan-2-yl)phenyl)pyridin-2-yl) carbamate]: the EC50 came out at 31 nM.

`CC(C)(O)c1ccc(-c2nccc(N(CC34CCC(c5noc(C(C)(C)F)n5)(CC3)CC4)C(=O)OC(C)(C)C(F)(F)F)n2)cc1` [Example 635, 1,1,1-trifluoro-2-methylpropan-2-yl ((4-(5-(2-fluoropropan-2-yl)-1,2,4-oxadiazol-3-yl)bicyclo[2.2.2]octan-1-yl)methyl)(2-(4-(2-hydroxypropan-2-yl)phenyl)pyrimidin-4-yl) carbamate]: the EC50 is 1280 nM.

`CC(C)Oc1ccc(-c2ccnc(N(CC34CCC(c5noc(C(C)(C)F)n5)(CC3)CC4)C(=O)OC(C)(C)C(F)(F)F)n2)cc1` [Example 636, 1,1,1-trifluoro-2-methylpropan-2-yl ((4-(5-(2-fluoropropan-2-yl)-1,2,4-oxadiazol-3-yl)bicyclo[2.2.2]octan-1-yl)methyl)(4-(4-isopropoxyphenyl)pyrimidin-2-yl)carbamate] registered an EC50 of 68 nM.

Compound `O=C(NC12CCC(CN(C(=O)C3CC(O)(C(F)(F)F)C3)c3cccc(-c4ccc(OC(F)F)cc4)c3)(CC1)CC2)c1ccc(F)cc1` (stereo not drawn) [Example 637, N-(4-(((cis)-N-(4′-(difluoromethoxy)-[1,1′-biphenyl]-3-yl)-3-hydroxy-3-(trifluoromethyl)cyclobutane-1-carboxamido)methyl)bicyclo[2.2.2]octan-1-yl)-4-fluorobenzamide] showed an EC50 of 384 nM.

In turn, `O=C(C1CC(O)(C(F)(F)F)C1)N(CC12CCC(C(=O)NS(=O)(=O)C3CC3)(CC1)CC2)c1cccc(-c2ccc(OC(F)F)cc2)c1` (stereo not drawn) [Example 638, N-(cyclopropylsulfonyl)-4-(((cis)-N-(4′-(difluoromethoxy)-[1,1′-biphenyl]-3-yl)-3-hydroxy-3-(trifluoromethyl)cyclobutane-1-carboxamido)methyl)bicyclo[2.2.2]octane-1-carboxamide] returned a half-maximal effective concentration (EC50) of 2000 nM.

In the case of `O=C(C1CC(O)(C(F)(F)F)C1)N(CC12CCC(c3noc(-c4ccc(F)cc4)n3)(CC1)CC2)c1cccc(-c2ccc(OC(F)F)cc2)c1` (stereo not drawn) [Example 639, (cis)-N-(4′-(difluoromethoxy)-[1,1′-biphenyl]-3-yl)-N-((4-(5-(4-fluorophenyl)-1,2,4-oxadiazol-3-yl)bicyclo[2.2.2]octan-1-yl)methyl)-3-hydroxy-3-(trifluoromethyl)cyclobutane-1-carboxamide], a half-maximal response (EC50) required 221 nM.

(Values after patent US11254663B2 (BRISTOL-MYERS SQUIBB COMPANY, priority 2019, dated 2022).)
